Data: US11542280B2, “Substituted pyrimidinium compounds and derivatives for combating animal pests” (BASF SE, priority 2017, dated 2023)

Assays:
Assay type in all cases: in vivo
[1] = test system: Dichromothrips corbetti; experiment: Orchid thrips floral-immersion test; conditions: adult thrips, 72 hours after treatment, read-out: mortality in comparison with untreated controls
Description: (§1) General conditions: If not otherwise specified, the test solutions are prepared as follows:
(§2) The active compound is dissolved at the desired concentration in a mixture of 1:1 (vol:vol) distilled water: acetone. The test solution is prepared at the day of use.
(§3) Test solutions are prepared in general at different concentrations (wt/vol).
Dichromothrips corbetti adults used for bioassay are obtained from a colony maintained continuously under laboratory conditions. For testing purposes, the test compound is diluted in a 1:1 mixture of acetone:water (vol:vol), plus 0.01% vol/vol Alkamuls® EL 620 surfactant.
Thrips potency of each compound is evaluated by using a floral-immersion technique. Plastic petri dishes are used as test arenas. All petals of individual, intact orchid flowers are dipped into treatment solution and allowed to dry. Treated flowers are placed into individual petri dishes along with about 20 adult thrips. The petri dishes v then covered with lids. All test arenas are held under continuous light and a temperature of about 28° C. for duration of the assay. After 3 days, the numbers of live thrips are counted on each flower, and along inner walls of each petri dish. The percent mortality is recorded 72 hours after treatment.

[2] = test system: Nilaparvata lugens; experiment: Rice brown plant hopper spray test on rice seedlings; conditions: adults on sprayed rice seedlings, after 72 hours, read-out: mortality in comparison with untreated controls
Description: as §1, §2, §3
(§4) Rice seedlings are cleaned and washed 24 hours before spraying. The active compounds are formulated in 50:50 acetone:water (vol:vol) and 0.1% vol/vol surfactant (EL 620) is added. Potted rice seedlings are sprayed with 5 ml test solution, air dried, placed in cages and inoculated with 10 adults. Treated rice plants are kept at about 28-29° C. and relative humidity of about 50-60%. Percent mortality is recorded after 72 hours.

[3] = test system: Nephotettix virescens; experiment: Rice green leafhopper spray test on rice seedlings; conditions: adults on sprayed rice seedlings, after 72 hours, read-out: mortality in comparison with untreated controls
Description: as §1, §2, §3
as §4, with “(vol:vol),” for “(vol:vol)”

Measured: mortality at 500 ppm

Cn1c2[n+](c([O-])c(-c3ccccc3)c1=O)C(CC#N)CS2 (stereo not drawn) [Example C1, 3-(cyanomethyl)-8-methyl-7-oxo-6-phenyl-2,3-dihydrothiazolo[3,2-a]pyrimidin-4-ium-5-olate]
> 75%: all assays above
